For 33 compounds, EC50 results are on record in patent US20170210751A1, “PRMT5 INHIBITORS AND USES THEREOF” (Epizyme, Inc., priority 2014, published 2017).

The subject of this experiment is Symmetric di-Methyl Arginine in Z-138 cells. As to the kind of experiment: Z-138 Methylation Assay (In Cell Western for symmetric di-methyl arginine). The experiment is classed as cell-based. The settings on record: Homo sapiens, 96 hours incubation, symmetric di-methyl arginine normalised to DNA content, read-out: ICW EC50. Put shortly: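 Z-138 cells were treated with compound for 96 h at 37 °C, then fixed on poly-D-lysine plates. Symmetric di-methyl arginine was detected by In-Cell Western (800 nm) with DRAQ5 DNA normalisation (700 nm). Percent inhibition used DMSO and 3 μM reference-compound controls; IC50 curves came from triplicate wells.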
For `CC(=O)N1CC(Nc2cc(C(=O)NC[C@H](O)CN3CCc4[nH]nc(-c5ccccc5)c4C3)ncn2)C1` [Compound 3-11, (S)-6-((1-acetylazetidin-3-yl)amino)-N-(2-hydroxy-3-(3-phenyl-6,7-dihydro-1H-pyrazolo[4,3-c]pyridin-5(4H)-yl)propyl)pyrimidine-4-carboxamide], the EC50 is greater than 1000 nM. As for `CC(=O)N1CCC(Nc2cc(C(=O)NC[C@H](O)CN3CCc4[nH]nc(-c5ccccc5)c4C3)ncn2)CC1` [Compound 3-12, (S)-6-((1-acetylpiperidin-4-yl)amino)-N-(2-hydroxy-3-(3-phenyl-6,7-dihydro-1H-pyrazolo[4,3-c]pyridin-5(4H)-yl)propyl)pyrimidine-4-carboxamide], the EC50 is greater than 1000 nM. As for `O=C(NC[C@H](O)CN1CCc2[nH]nc(-c3ccccc3)c2C1)c1cc(NC2COC2)ncn1` [Compound 3-17, (S)—N-(2-hydroxy-3-(3-phenyl-6,7-dihydro-1H-pyrazolo[4,3-c]pyridin-5(4H)-yl)propyl)-6-(oxetan-3-ylamino)pyrimidine-4-carboxamide], the half-maximal effective concentration (EC50) was greater than 1000 nM. With `CC(=O)N1CCC(Nc2cc(C(=O)NC[C@H](O)CN3CCc4[nH]ncc4C3)ccn2)CC1` [Compound 3-21] the figure was greater than 1000 nM; with `CC(=O)N1CCC(Nc2cc(C(=O)NC[C@H](O)CN3CCc4c(ncn4C)C3)ccn2)CC1` [Compound 3-22, (S)-2-((1-acetylpiperidin-4-yl)amino)-N-(2-hydroxy-3-(1-methyl-6,7-dihydro-1H-imidazo[4,5-c]pyridin-5(4H)-yl)propyl)isonicotinamide], greater than 1000 nM. Turning to `CC(=O)N1CC(Nc2cc(C(=O)NC[C@H](O)CN3CCc4[nH]ncc4C3)ncn2)C1` [Compound 3-23], the EC50 was greater than 1000 nM. To `CC(=O)N1CCC(Nc2cc(C(=O)NC[C@H](O)CN3CCc4ncn(C)c4C3)ccn2)CC1` [Compound 3-24, (S)-2-((1-acetylpiperidin-4-yl)amino)-N-(2-hydroxy-3-(3-methyl-6,7-dihydro-3H-imidazo[4,5-c]pyridin-5(4H)-yl)propyl)isonicotinamide] belongs greater than 1000 nM. To `Cn1cnc2c1CN(C[C@@H](O)CNC(=O)c1cc(NC3COC3)ncn1)CC2` [Compound 3-26, (S)—N-(2-hydroxy-3-(3-methyl-6,7-dihydro-3H-imidazo[4,5-c]pyridin-5(4H)-yl)propyl)-6-(oxetan-3-ylamino)pyrimidine-4-carboxamide] belongs greater than 1000 nM; to `Cn1cc2c(n1)CCN(C[C@@H](O)CNC(=O)c1cc(NC3COC3)ncn1)C2` [Compound 3-27], greater than 1000 nM; to `Cn1cnc2c1CCN(C[C@@H](O)CNC(=O)c1cc(NC3COC3)ncn1)C2` [Compound 3-28], greater than 1000 nM. To `CC(=O)N1CC(Nc2cc(C(=O)NC[C@H](O)CN3CCc4[nH]cnc4C3)ncn2)C1` [Compound 3-33, (S)-6-((1-acetylazetidin-3-yl)amino)-N-(3-(6,7-dihydro-1H-imidazo[4,5-c]pyridin-5(4H)-yl)-2-hydroxypropyl)pyrimidine-4-carboxamide] belongs greater than 1000 nM. On to `CC(=O)N1CCC(Nc2cc(C(=O)NC[C@H](O)CN3CCc4[nH]cnc4C3)ncn2)CC1` [Compound 3-34, (S)-6-((1-acetylpiperidin-4-yl)amino)-N-(3-(6,7-dihydro-1H-imidazo[4,5-c]pyridin-5(4H)-yl)-2-hydroxypropyl)pyrimidine-4-carboxamide], for which the EC50 is greater than 1000 nM. With `CC(=O)N1CCC(Nc2cc(C(=O)NC[C@H](O)CN3CCc4c(ncn4C)C3)ncn2)CC1` [Compound 3-35, (S)-6-((1-acetylpiperidin-4-yl)amino)-N-(2-hydroxy-3-(1-methyl-6,7-dihydro-1H-imidazo[4,5-c]pyridin-5(4H)-yl)propyl)pyrimidine-4-carboxamide] the figure was greater than 1000 nM; with `CC(=O)N1CCC(Nc2cc(C(=O)NC[C@H](O)CN3CCc4[nH]cnc4C3)ccn2)CC1` [Compound 3-36, (S)-2-((1-acetylpiperidin-4-yl)amino)-N-(3-(6,7-dihydro-1H-imidazo[4,5-c]pyridin-5(4H)-yl)-2-hydroxypropyl)isonicotinamide], greater than 1000 nM; with `O=C(NC[C@H](O)CN1CCc2[nH]cnc2C1)c1cc(NC2COC2)ncn1` [Compound 3-38, (S)—N-(3-(6,7-dihydro-1H-imidazo[4,5-c]pyridin-5(4H)-yl)-2-hydroxypropyl)-6-(oxetan-3-ylamino)pyrimidine-4-carboxamide], greater than 1000 nM. With `Cn1ncc2c1CCCN2C[C@@H](O)CNC(=O)c1cc(NC2COC2)ncn1` [Compound 3-40] the figure was greater than 1000 nM; with `Cc1nc2c([nH]1)CCN(C[C@@H](O)CNC(=O)c1cc(NC3COC3)ncn1)C2` [Compound 3-41], greater than 1000 nM; with `CC(=O)N1CC(Nc2cc(C(=O)NC[C@H](O)CN3CCc4cn[nH]c4C3)ncn2)C1` [Compound 3-44], greater than 1000 nM. With `CC(=O)N1CC(Nc2cc(C(=O)NC[C@H](O)CN3CCc4c(ncn4C)C3)ncn2)C1` [Compound 3-45] the figure was greater than 1000 nM. As for `CC(=O)N1CC(Nc2cc(C(=O)NC[C@H](O)CN3CCCc4c3cnn4C)ncn2)C1` [Compound 3-46], the EC50 is greater than 1000 nM. With `CC(=O)N1CC(Nc2cc(C(=O)NC[C@H](O)CN3CCc4[nH]c(C)nc4C3)ncn2)C1` [Compound 3-47] the figure was greater than 1000 nM. For `CC(=O)N1CCC(Nc2cc(C(=O)NC[C@H](O)CN3CCc4cn[nH]c4C3)ccn2)CC1` [Compound 3-50], the EC50 is greater than 1000 nM.

In the case of `CC(=O)N1CCC(Nc2cc(C(=O)NC[C@H](O)CN3CCc4cn[nH]c4C3)ncn2)CC1` [Compound 3-51], the EC50 is greater than 1000 nM.

Consider `CC(=O)N1CCC(Nc2cc(C(=O)NC[C@H](O)CN3CCc4c(cnn4C)C3)ccn2)CC1` [Compound 3-52], for which the EC50 was greater than 1000 nM. In the case of `CC(=O)N1CCC(Nc2cc(C(=O)NC[C@H](O)CN3CCc4nn(C)cc4C3)ccn2)CC1` [Compound 3-53], the EC50 was greater than 1000 nM.

For the compound `CC(=O)N1CCC(Nc2cc(C(=O)NC[C@H](O)CN3CCc4nc(C)[nH]c4C3)ccn2)CC1` [Compound 3-54], the EC50 was greater than 1000 nM. For the compound `CC(=O)N1CCC(Nc2cc(C(=O)NC[C@H](O)CN3CCc4c(cnn4C)C3)ncn2)CC1` [Compound 3-56], the half-maximal effective concentration (EC50) was greater than 1000 nM. To `CC(=O)N1CCC(Nc2cc(C(=O)NC[C@H](O)CN3CCc4nn(C)cc4C3)ncn2)CC1` [Compound 3-57] belongs greater than 1000 nM; to `CC(=O)N1CCC(Nc2cc(C(=O)NC[C@H](O)CN3CCCc4c3cnn4C)ncn2)CC1` [Compound 3-58], greater than 1000 nM. To `Cc1nc2c(o1)CCN(C[C@@H](O)CNC(=O)c1cc(NC3COC3)ncn1)C2` [Compound 4-1, (S)—N-(2-hydroxy-3-(2-methyl-6,7-dihydrooxazolo[4,5-c]pyridin-5(4H)-yl)propyl)-6-(oxetan-3-ylamino)pyrimidine-4-carboxamide] belongs greater than 1000 nM. As for `CC(=O)N1CC(Nc2cc(C(=O)NC[C@H](O)CN3CCc4oc(C)nc4C3)ncn2)C1` [Compound 4-2, (S)-6-((1-acetylazetidin-3-yl)amino)-N-(2-hydroxy-3-(2-methyl-6,7-dihydrooxazolo[4,5-c]pyridin-5(4H)-yl)propyl)pyrimidine-4-carboxamide], the EC50 was greater than 1000 nM.

For `CC(=O)N1CCC(Nc2cc(C(=O)NC[C@H](O)CN3CCc4oc(C)nc4C3)ncn2)CC1` [Compound 4-3, (S)-6-((1-acetylpiperidin-4-yl)amino)-N-(2-hydroxy-3-(2-methyl-6,7-dihydrooxazolo[4,5-c]pyridin-5(4H)-yl)propyl)pyrimidine-4-carboxamide], the concentration for a half-maximal effect (EC50) was greater than 1000 nM. To `CC(=O)N1CCC(Nc2cc(C(=O)NC[C@H](O)CN3CCc4oc(C)nc4C3)ccn2)CC1` [Compound 4-4, (S)-2-((1-acetylpiperidin-4-yl)amino)-N-(2-hydroxy-3-(2-methyl-6,7-dihydrooxazolo[4,5-c]pyridin-5(4H)-yl)propyl)isonicotinamide] belongs greater than 1000 nM.

Broadly, the EC50 is the concentration giving half of the maximal effect.
